From publication PMC6934184, “Selective DNA-PKcs inhibition extends the therapeutic index of localized radiotherapy and chemotherapy” (The Journal of Clinical Investigation, 2019)

Biological target: T1, FLT3 (Homo sapiens, UniProt P36888)
T1 construct: purchased Thermo Fisher Scientific (Life Technologies) SelectScreen
Experiment: SelectScreen Z'LYTE
Format: biochemical
Summary of the method: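 SelectScreen broad panel; activity (Z'LYTE, Adapta) plus binding formats. ATP: Km app for CSF1R Z'LYTE; 10 for CAMK1 Adapta. Readout = % per kinase.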

T1 sequence (P36888 27-993): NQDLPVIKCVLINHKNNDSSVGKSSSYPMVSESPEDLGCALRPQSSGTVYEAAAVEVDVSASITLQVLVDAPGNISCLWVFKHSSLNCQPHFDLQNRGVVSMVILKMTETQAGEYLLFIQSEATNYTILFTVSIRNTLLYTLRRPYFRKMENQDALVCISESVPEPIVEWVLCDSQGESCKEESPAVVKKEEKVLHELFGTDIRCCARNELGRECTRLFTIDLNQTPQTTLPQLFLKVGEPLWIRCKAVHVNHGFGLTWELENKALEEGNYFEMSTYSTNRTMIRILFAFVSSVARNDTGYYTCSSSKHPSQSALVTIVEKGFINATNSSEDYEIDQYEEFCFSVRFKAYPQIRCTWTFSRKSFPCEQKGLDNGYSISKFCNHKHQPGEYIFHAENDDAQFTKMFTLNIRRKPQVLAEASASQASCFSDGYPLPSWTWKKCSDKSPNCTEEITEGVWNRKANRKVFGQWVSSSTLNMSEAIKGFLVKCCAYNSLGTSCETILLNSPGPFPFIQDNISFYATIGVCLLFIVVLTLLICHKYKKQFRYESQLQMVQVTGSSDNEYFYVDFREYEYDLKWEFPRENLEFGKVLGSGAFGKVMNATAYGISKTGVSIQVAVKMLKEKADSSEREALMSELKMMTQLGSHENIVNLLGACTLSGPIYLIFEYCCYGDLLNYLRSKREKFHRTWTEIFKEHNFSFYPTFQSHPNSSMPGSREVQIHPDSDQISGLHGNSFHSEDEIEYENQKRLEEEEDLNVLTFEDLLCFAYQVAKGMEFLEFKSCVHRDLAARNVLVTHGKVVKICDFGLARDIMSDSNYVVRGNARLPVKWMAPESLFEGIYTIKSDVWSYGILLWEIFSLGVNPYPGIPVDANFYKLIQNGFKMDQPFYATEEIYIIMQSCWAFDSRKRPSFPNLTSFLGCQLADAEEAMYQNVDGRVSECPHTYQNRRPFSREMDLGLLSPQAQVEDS

CN(C(=O)CN1CCOCC1)c1ccc2sc3c(-c4cccc5c(=O)cc(N6CC7CCC(C6)O7)oc45)cccc3c2c1 [NU5455]
inhibition at 1 µM: 9.1%
